Results as given in ChEMBL document CHEMBL1201862, “PubChem BioAssay data set” (2004).
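Cells were grown in 96-well plates and exposed to each compound for 48 hours at five concentrations; endpoints were interpolated linearly between bracketing concentrations, or set to the highest concentration if not reached. Here, GI50 denotes the concentration required for 50% inhibition of growth.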 Activity calls are given as the source filed them. Cut-off read from the data, not from the text of the source: active = GI50 up to about 1.1 µM and inactive = higher.

Key:
Experiment in all cases: inhibition of tumour cell growth, NCI panel, 48 h
TK-10 = tested on: TK-10
SW-620 = tested on: SW-620
COLO 205 = tested on: COLO 205
SN12C = tested on: SN12C
PC-3 = tested on: PC-3
HOP-92 = tested on: HOP-92
K562 = tested on: K562
MDA-N = tested on: MDA-N
OVCAR-4 = tested on: OVCAR-4
786-0 = tested on: 786-0
HT-29 = tested on: HT-29
HCT-116 = tested on: HCT-116
UO-31 = tested on: UO-31
CCRF-CEM = tested on: CCRF-CEM
HOP-62 = tested on: HOP-62
HCT-15 = tested on: HCT-15
NCI-H522 = tested on: NCI-H522
SK-OV-3 = tested on: SK-OV-3
T47D = tested on: T47D
NCI-H226 = tested on: NCI-H226

| SMILES | GI50 (TK-10) | GI50 (SW-620) | GI50 (COLO 205) | GI50 (SN12C) | GI50 (PC-3) | GI50 (HOP-92) | GI50 (K562) | GI50 (MDA-N) | GI50 (OVCAR-4) | GI50 (786-0) | GI50 (HT-29) | GI50 (HCT-116) | GI50 (UO-31) | GI50 (CCRF-CEM) | GI50 (HOP-62) | GI50 (HCT-15) [µM] | GI50 (NCI-H522) | GI50 (SK-OV-3) | GI50 (T47D) | GI50 (NCI-H226) |
| --- | --- | --- | --- | --- | --- | --- | --- | --- | --- | --- | --- | --- | --- | --- | --- | --- | --- | --- | --- | --- |
| CCOC(=O)CCc1cc(=O)oc2cc(O)cc(O)c12 | > 100 µM (inactive) | > 100 µM (inactive) | > 100 µM (inactive) | > 100 µM (inactive) | > 100 µM (inactive) | > 100 µM (inactive) | > 100 µM (inactive) | > 100 µM (inactive) | > 100 µM (inactive) | > 100 µM (inactive) | > 100 µM (inactive) | > 100 µM (inactive) | > 100 µM (inactive) | > 100 µM (inactive) | > 100 µM (inactive) | > 100 | > 100 µM (inactive) | > 100 µM (inactive) | > 100 µM (inactive) | > 100 µM (inactive) |
| O=C(Oc1c(Cl)cc(C2(c3cc(Cl)c(OC(=O)c4ccccc4)c(Cl)c3)CCCCC2)cc1Cl)c1ccccc1 | 16.7 µM (inactive) | 16.2 µM (inactive) | 5.78 µM (inactive) | 13.2 µM (inactive) | 9.42 µM (inactive) | 8.45 µM (inactive) | 7.96 µM (inactive) | 12.7 µM (inactive) | 10.9 µM (inactive) | 14.1 µM (inactive) | 14.6 µM (inactive) | 13.2 µM (inactive) | 18.5 µM (inactive) | 8 µM (inactive) | 12.4 µM (inactive) | 11.9 | 13.7 µM (inactive) | 15.5 µM (inactive) | 11 µM (inactive) | 16.3 µM (inactive) |
| CCN(CC)CC(O)c1ccc2ccc3ccccc3c2c1 (configuration not stated) | 15.8 µM (inactive) | 18.5 µM (inactive) | 13.9 µM (inactive) | 16.3 µM (inactive) | 15.8 µM (inactive) | 14.2 µM (inactive) | 17 µM (inactive) | 15.6 µM (inactive) | 17.4 µM (inactive) | 12.9 µM (inactive) | 11.5 µM (inactive) | 15.3 µM (inactive) | 11.2 µM (inactive) | 23.7 µM (inactive) | 16.1 µM (inactive) | 16.3 | 15.6 µM (inactive) | 16 µM (inactive) | 20 µM (inactive) | 13.6 µM (inactive) |
| Cn1c2ccc3cc2c(=S)c2cc(ccc21)OCCOCCOCCOCCOCCO3 | > 10 µM (inactive) | > 10 µM (inactive) | > 10 µM (inactive) | > 10 µM (inactive) | > 10 µM (inactive) | > 10 µM (inactive) | > 10 µM (inactive) | > 10 µM (inactive) | > 10 µM (inactive) | > 10 µM (inactive) | > 10 µM (inactive) | > 10 µM (inactive) |  | > 10 µM (inactive) | > 10 µM (inactive) | > 10 | > 10 µM (inactive) | > 10 µM (inactive) | > 10 µM (inactive) | > 10 µM (inactive) |
| COc1cc2c(cc1OCCCN1C(=O)c3cccc4cccc(c34)C1=O)N=C[C@@H]1CCCN1C2=O | 30.3 µM (inactive) | 22.6 µM (inactive) | 18.5 µM (inactive) | 48.5 µM (inactive) | 44.8 µM (inactive) | 22.2 µM (inactive) | 22.5 µM (inactive) | 37.2 µM (inactive) | 31.7 µM (inactive) | 21 µM (inactive) | 31.3 µM (inactive) | 36.1 µM (inactive) | 22.5 µM (inactive) | 5.65 µM (inactive) | > 86.7 µM (inactive) | 23.1 | 14.3 µM (inactive) | > 100 µM (inactive) | 19.5 µM (inactive) | 34.4 µM (inactive) |
| COc1ccc(-c2coc3cc(OC)cc(O)c3c2=O)cc1 [4',7-DIMETHOXY-5-HYDROXYGENISTEIN] | 29.6 µM (inactive) | > 100 µM (inactive) | > 100 µM (inactive) | > 100 µM (inactive) | > 100 µM (inactive) | 7.41 µM (inactive) | > 100 µM (inactive) | > 100 µM (inactive) | > 100 µM (inactive) | 25.8 µM (inactive) | > 100 µM (inactive) | > 100 µM (inactive) |  | > 100 µM (inactive) | 32.4 µM (inactive) | > 100 | > 100 µM (inactive) | > 100 µM (inactive) | > 100 µM (inactive) | > 100 µM (inactive) |
| O=C(Nc1ncc([N+](=O)[O-])s1)c1ccccc1O [TIZOXANIDE] | 21.4 µM (inactive) | 34.1 µM (inactive) | 15.2 µM (inactive) | 17.5 µM (inactive) | 11.9 µM (inactive) | 2.74 µM (inactive) | 28.2 µM (inactive) | 27 µM (inactive) | 38.3 µM (inactive) | 24.4 µM (inactive) | 14.5 µM (inactive) | 11.1 µM (inactive) | 23.7 µM (inactive) |  | 20 µM (inactive) | 19.1 | 3.13 µM (inactive) | 12.2 µM (inactive) | 28.3 µM (inactive) | 7.55 µM (inactive) |
